Source: paper PMC5519633, “Endolysosomal targeting of a clinical chlorin photosensitiser for light-triggered delivery of nano-sized medicines” (Scientific Reports, 2017)

Columns and labels:
[1] = standard reference compound in deuterated methanol; cited from earlier work
Text: For the determination of the singlet oxygen quantum yield (ΦΔ), deuterated methanol (CD3OD) was used since singlet oxygen has a relatively long lifetime in deuterated solvents. To confirm that the methanolic solutions of the conjugates and chlorin e6 at the concentrations studied were monomeric, absorption ...

[2] = cited from earlier work
Text: The rationale for selecting chlorin e6 as the photosensitiser for this study on PCI was based on its favourable photosensitising properties but also on its poor lysosomal localisation[40] and bioavailability. The cellular uptake and membrane transport of chlorin e6 has been studied in detail in relation to its acid-base properties. The structure of chlorin e6 contains three adjacent carboxylic acid functions with pKa7.9–8.3[47]which are thus only partially ionised at physiological pH leading to poor aqueous solubility, which complicates systemic administration. At lower pH, as is typical for t ...

MC28 cells [3] = experiment: In vitro PDT phototoxicity, MTT assay; format: cell-based, rat; conditions: 3.2 µM, 18 h incubation, 5 min illumination, 420 nm, 7 mW cm-2, MTT 48 h after light, three independent experiments
[4] = tested on: human pharyngeal FaDu carcinoma cells; conditions: cited from earlier work
Text: The lower uptake of the free chlorin is consistent with its lower PDT efficacy compared to the conjugates, as discussed below. […] Figure 3H and I show sequential images ...

MC28 cells [5] = experiment: Cellular uptake and subcellular localisation, confocal microscopy with LysoTracker Green; format: cell-based, rat; conditions: same concentration and image intensity scale as the conjugates
Method: Cells were seeded in small Petri dishes, with a glass cover slip bottom window for use with an inverted microscope (Fluorodish, World Precision Inst. UK), and allowed to attach overnight. Cells were incubated for 24 h with the compounds (2.5 µM). Afterwards, culture medium was removed and replaced with fresh medium containing Lysotracker Green (100 nM) for 30 min before microscope imaging. Cells were washed 2 times with PBS and incubated with drug-free/phenol red-free medium for confocal imaging using an Olympus Laser scanning confocal microscope (FluoView FV1000, 60x magnification, NA 1.20, Olympus UK Ltd, Essex, UK). Fluorescence from the photosensitiser was recorded within the range of 620–720 nm using a 405 nm laser for the excitation. For LysoTracker Green, cells were illuminated at 488 nm and the fluorescence signal was recorded at 500–550 nm. Colocalisation analysis and image processing of the 16-bit images were performed with ImageJ software.

[6] = Singlet oxygen quantum yield by time-resolved 1270 nm phosphorescence in deuterated methanol; format: physicochemical; conditions: aerated deuterated methanol (CD3OD); 532 nm laser excitation; absorbance matched to Rose Bengal reference; zero-time intercept analysis; estimated experimental error +/- 0.06
Method: For the singlet oxygen studies, absorption spectra of the compounds were measured using a Perkin-Elmer Lambda 25 UV/Vis spectrometer (Perkin-Elmer, Beaconsfield, UK) with quartz cuvettes. The singlet oxygen phosphorescence at 1270 nm was detected using time-resolved photon counting from aerated solutions in deuterated methanol (CD3OD) in quartz cuvettes. […] Integrated time-resolved phosphorescence traces were analysed using FluoFit software (PicoQuant GmbH, Berlin, Germany) to extract the singlet oxygen decay lifetime. […]

[7] = in dimethylformamide; cited from earlier work
[8] = Absorption spectra as a function of concentration (test for aggregation); format: physicochemical; conditions: methanolic solution; up to 8 μM; 398 nm for conjugates, 399 nm for chlorin e6
Method: For the determination of the singlet oxygen quantum yield (ΦΔ), deuterated methanol (CD3OD) was used since singlet oxygen has a relatively long lifetime in deuterated solvents. To confirm that the methanolic solutions of the conjugates and chlorin e6 at the concentrations studied were monomeric, absorption spectra were recorded as a function of concentration. […] The singlet oxygen quantum yields in deuterated methanol were measured using a standard reference compound, Rose Bengal (ΦΔ = 0.76)[43] using matched reference solution absorbances at the laser wavelength of 532 nm. Using standard zero-point intercept analysis of the singlet oxygen decays, the quantum yield of chlorin e6 was calculated as 0.67, which is in good agreement with the literature, as reviewed by Redmond et al.[43]. Morjzisova et al. reported the quantum yields of several chlorins in dimethylformamide and measured a value of 0.63 for chlorin e6, and observed a similar value for another clinical chlorin PDT photosensitiser, mTHPC (0.68) and disulfonated tetraphenyl chlorin (0.66)[44].
For the singlet oxygen studies, absorption spectra of the compounds were measured using a Perkin-Elmer Lambda 25 UV/Vis spectrometer (Perkin-Elmer, Beaconsfield, UK) with quartz cuvettes. […]

KB cells = experiment: In vitro PDT/PCI phototoxicity with saporin, MTT assay; format: cell-based, human; conditions: saporin 20 nM, without photosensitiser

In the case of `O=C([O-])c1c(Cl)c(Cl)c(Cl)c(Cl)c1-c1c2cc(I)c(=O)c(I)c-2oc2c(I)c([O-])c(I)cc12.[Na+].[Na+]` [Rose Bengal], the “singlet oxygen quantum yield (ΦΔ) of reference standard” value [1] is listed as 0.76.
In the case of `C=Cc1c(C)c2cc3nc(c(CC(=O)O)c4[nH]c(cc5nc(cc1[nH]2)C(C)=C5CC)c(C)c4C(=O)O)[C@@H](CCC(=O)O)[C@@H]3C` [chlorin e6], the “pKa of the three carboxylic acid functions” value [2] is given as 7.9–8.3, the “loss of viability (PDT)” value (MC28 cells [3]) is given as “less than 20%” and the “cellular uptake of free chlorin e6 compared to dendrimer conjugates of chlorin e6” value [4] is given as “an order of magnitude lower”. For the same compound, the “cellular uptake, intracellular fluorescence relative to the conjugates” value (MC28 cells [5]) was “much lower fluorescence”, the “singlet oxygen quantum yield (ΦΔ)” value [6] was 0.67 and the “singlet oxygen quantum yield” value [7] was 0.63. For the same compound, the “peak absorbance of the Soret band versus concentration (monomeric or aggregated)” value [8] was “linear”.
In the case of `Oc1cccc(-c2c3nc(c(-c4cccc(O)c4)c4ccc([nH]4)c(-c4cccc(O)c4)c4nc(c(-c5cccc(O)c5)c5ccc2[nH]5)CC4)C=C3)c1` [mTHPC], the “singlet oxygen quantum yield” value [7] is given as 0.68.
In the case of disulfonated tetraphenyl chlorin, the “singlet oxygen quantum yield” value [7] is given as 0.66.
For saporin, the “reduction in viability, saporin alone” value (KB cells) was under 20%.
